Experiment: in vitro
Conditions: human, hela cells, % viability

| SMILES | viability at 28.5 h, 10 µM [%] |
| --- | --- |
| Cc1cc(C)c(C(=O)N2CCN(CCNC(=O)C3CCCC3)CC2)[nH]1 [CBK305315] | 89.5 |
| FC(F)(F)c1nc2ccccc2nc1SCCc1ccccc1 [CBK107204] | 90.3 |
| O=[N+]([O-])c1ccc(Oc2cccc(Cl)c2Cl)c(C(F)(F)F)c1 [CBK002594] | 82.8 |
| CC(=O)Nc1ccc(-c2nc(-c3ccc(-c4ccccc4)cc3)c(-c3ccc(-c4ccccc4)cc3)[nH]2)cc1 [CBK262620] | 87.3 |
| O=C(CN1C(=O)N2CCCN=C2c2ccccc21)N1CCCCC1 [CBK284395] | 85.8 |
| O=C(NC1CCc2ccccc21)N1CCN(c2ccccc2)CC1 (stereo not drawn) [CBK155208] | 92.2 |
| CCOC(=O)c1c(NC(=O)NCc2ccncc2)sc2c1CCC2 [CBK307591] | 81.6 |
| O=C1CCC(=O)N1CCn1c(=O)n(S(=O)(=O)c2ccc(-c3ccccc3)cc2)c2ccccc21 [CBK106494] | 112 |
| COc1ccc(Oc2cc3n(c(=O)n2)CCc2cc(OC)c(OC)cc2-3)cc1 [CBK291177] | 86.1 |
| COc1cccc(NC(=O)CCCC(=O)O)c1 [CBK261324] | 98.1 |
| CN1CC=C(/C=C/C2=Cc3ccccc3OC2)CC1 [CBK283857] | 89.1 |
| CCC(C)(Sc1nc(C)ccc1C#N)C(=O)O (stereo not drawn) [CBK287098] | 88.7 |
| O=C(Nc1ccc(F)c(F)c1)N[C@H]1CC[C@@]2(c3cccc(Br)c3)CCN(Cc3ccccc3)[C@H]2C1 [CBK047515] | 107 |
| COc1ccccc1CN(C)C(C)C(=O)Nc1sccc1C(N)=O (stereo not drawn) [CBK306466] | 109 |
| COc1ccccc1CN1CC[C@H]2NC(=O)CNC(=O)C3(C/C=C/C[C@H]2C1)CCN(C(C)=O)CC3 [CBK292107] | 111 |
| COc1ccnc(N2CCN(C(=O)c3cccc4c3NCCC4)CC2)n1 [CBK306639] | 109 |
| Cc1ccc(C(=O)NCCCN2CCC3(CC2)OCCc2c3[nH]c3ccccc23)cc1 [CBK113485] | 85.5 |
| CN1CCC(NC2(Cc3cc(-c4ccccn4)on3)COC2)CC1 [CBK289249] | 88.7 |
| O=C(O)COc1cccc2ccccc12 [CBK218704] | 106 |
| COc1ccc(OC)c(NC(=O)C(C)Oc2ccccc2OC)c1 (stereo not drawn) [CBK269766] | 85.3 |
| CC(Oc1ccc(C#N)cc1)C(=O)NCC(C)(C)N1CCOCC1 (stereo not drawn) [CBK304066] | 90 |
| c1ccc2c(c1)nc1n2CCN1CCN1CCCCC1 [CBK278283C] | 98.5 |

| SMILES | viability at 28.5 h, 10 µM [%] |
| --- | --- |
| COc1cccc(COc2cncc(Cl)n2)c1OC [CBK176057] | 86.3 |
| COc1ccc(OCC(O)CN2CCN(c3ccccn3)CC2)cc1 (stereo not drawn) [CBK278239C] | 81.8 |
| Cc1cc(COC(=O)N2CCc3ccccc32)cc(C)n1 [CBK200134] | 81.4 |
| C(CSC1=NCCN1)CSC1=NCCN1 [CBK278217B] | 106 |
| O=C(c1nc2ccccc2s1)C1CCNCC1 [CBK285397] | 103 |
| CC(C)c1ccc(C(C)NC(=O)c2cccn(CC(=O)NC3CCCC3)c2=O)cc1 (stereo not drawn) [CBK286018] | 91.3 |
| COc1cccc(-c2csc(N3CCN(C(=O)Nc4ccccc4)CC3)n2)c1 [CBK070275] | 95.4 |
| CC(=O)C(CC(=O)O)C1=C(O)CC(C)(C)CC1=O (stereo not drawn) [CBK287127] | 91.5 |
| CC(C)Nc1cncc(SCCN(C)C)n1 [CBK105292] | 90.6 |
| CN1CCC(C(=O)NC(=O)Nc2ccccc2F)CC1 [CBK034827] | 93.2 |
| O=C(NCc1ccccn1)c1cnn(-c2ccc(Cl)cc2)c1C(F)(F)F [CBK116637T] | 101 |
| O=C(Nc1ccc(F)cc1)N1C2CCC1CC(O)(c1cccnc1)C2 (stereo not drawn) [CBK281946] | 89.9 |
| Cc1nn(Cc2ccc(F)cc2)c2sc(C(=O)NCc3ccc(S(N)(=O)=O)cc3)cc12 [CBK295181] | 87 |
| COc1cc2ncc(C(=O)NCc3cccs3)c(O)c2cc1OC [CBK159998] | 91.9 |
| Cc1ccc(-c2ncc3c(=O)[nH]c(=O)n(C)c3n2)cc1 [CBK288553] | 89.6 |
| CCN(Cc1ccc(C#N)cc1F)C(=O)NC(C)c1nncn1C (stereo not drawn) [CBK305888] | 119 |
| Nc1c(C(=S)c2cccs2)oc2c1C(c1ccccc1)CC(=O)N2 (stereo not drawn) [CBK020690] | 42.2 |
| Fc1ccccc1-c1nccnc1NCc1ccncc1 [CBK037540] | 101 |
| CCC(=O)Nc1nc(-c2ccco2)c(-c2ccncc2)s1 [CBK284495] | 101 |
| Cc1noc(-c2cn(C)nc2C2CCCCN2C(=O)C2CC2)c1C (stereo not drawn) [CBK283410] | 96.9 |
| CCNc1cncc(-c2ccccc2)n1 [CBK065847] | 85.5 |
| Cc1cccc(-c2ncc(C(=O)NCc3csc4ccc(Cl)cc34)cc2-c2ccncc2)c1 [CBK036770] | 89.6 |

| SMILES | viability at 28.5 h, 10 µM [%] |
| --- | --- |
| COc1cc2c3c(cccc3c1)CC(C)(N(C)C)C2 (stereo not drawn) [CBK024357C] | 105 |
| CCc1noc(C)c1C(=O)N1CC(C(=O)N2CCN(c3ccccc3)CC2)C1 [CBK285667] | 107 |
| COc1ccc(C2CCN(Cc3ccncc3)CC2)cc1 [CBK283563] | 95.8 |
| COc1ccc(OCCOCCN2CCOCC2)cc1 [CBK261999] | 91.3 |
| CC(C)[C@H](CO)Nc1nc(-c2ccc(S(C)(=O)=O)cc2)cnc1N [CBK063718] | 110 |
| O=C(O)c1cccc2c1C(=O)C(CC1CCCO1)N2 (stereo not drawn) [CBK287140] | 90.6 |
| N#CC(C(=O)CN1CCN(Cc2ccccc2)CC1)c1ccccc1 (stereo not drawn) [CBK269386] | 99.6 |
| COc1ccccc1C(=O)Nc1ccc2nc(SCC(=O)NC3CC3)sc2c1 [CBK070791] | 92.7 |
| Nc1cccc2c1C(=O)N(c1ccccc1C(=O)O)C2=O [CBK287220] | 94 |
| OC(COCc1ccccc1)CN1CCN(Cc2ccccc2)CC1 (stereo not drawn) [CBK278297C] | 107 |
| CC(CNC(=O)c1cccn(CC(=O)Nc2ccc(F)cc2)c1=O)N1CCCCCC1 (stereo not drawn) [CBK286123] | 97.5 |
| COc1ccc(-n2ncc3c(N4CCN(C)CC4)ncnc32)cc1 [CBK265848] | 89 |
| Cc1cc(C)n(Cc2cccc(C(=O)NC(C)Cc3ccccn3)c2)n1 (stereo not drawn) [CBK281449] | 102 |
| CCOc1ccccc1NC(=O)CSc1nc(N)cc(O)n1 [CBK268075] | 107 |
| CC(=O)C1=C(C)N(CC2CCCO2)C(=O)C1(NC(=O)c1ccc(C(C)(C)C)cc1)C(F)(F)F (stereo not drawn) [CBK268043] | 93.2 |
| Cc1cccc(OCCn2c(CCNC=O)nc3ccccc32)c1C [CBK269539] | 104 |
| Cc1ccc2nsnc2c1NC(=O)CN1CCC(C)CC1 [CBK269568] | 86.2 |
| COCCNC(=O)c1cc(-c2ccc(C)s2)nc2c1cnn2C(C)C [CBK305051] | 105 |
| CC1CCCN(Cc2c(C3CCCNC3)[nH]c3ncccc23)C1 (stereo not drawn) [CBK285112] | 70.3 |
| COc1ccc(C2(C(=O)N3CCN(C)CC3)CC2)cc1 [CBK149837] | 86.3 |
| Cc1cc(N2CCCC(C(=O)N3CCOCC3)C2)nc(N)n1 (stereo not drawn) [CBK305985] | 76.4 |
| Cc1nc(NCCO)c2c3c(sc2n1)CCCC3 [CBK131920] | 90.1 |

Source: publication PMC12040169 (PLOS Biology, 2025)
